Calls of active or inactive are those of the source. A value given as a limit tells only on which side of the number the result lay.

Test [1] deals with T1, Sentrin-specific protease 6 (Homo sapiens, UniProt Q9GZR1).
T1 sequence (Q9GZR1 whole entry): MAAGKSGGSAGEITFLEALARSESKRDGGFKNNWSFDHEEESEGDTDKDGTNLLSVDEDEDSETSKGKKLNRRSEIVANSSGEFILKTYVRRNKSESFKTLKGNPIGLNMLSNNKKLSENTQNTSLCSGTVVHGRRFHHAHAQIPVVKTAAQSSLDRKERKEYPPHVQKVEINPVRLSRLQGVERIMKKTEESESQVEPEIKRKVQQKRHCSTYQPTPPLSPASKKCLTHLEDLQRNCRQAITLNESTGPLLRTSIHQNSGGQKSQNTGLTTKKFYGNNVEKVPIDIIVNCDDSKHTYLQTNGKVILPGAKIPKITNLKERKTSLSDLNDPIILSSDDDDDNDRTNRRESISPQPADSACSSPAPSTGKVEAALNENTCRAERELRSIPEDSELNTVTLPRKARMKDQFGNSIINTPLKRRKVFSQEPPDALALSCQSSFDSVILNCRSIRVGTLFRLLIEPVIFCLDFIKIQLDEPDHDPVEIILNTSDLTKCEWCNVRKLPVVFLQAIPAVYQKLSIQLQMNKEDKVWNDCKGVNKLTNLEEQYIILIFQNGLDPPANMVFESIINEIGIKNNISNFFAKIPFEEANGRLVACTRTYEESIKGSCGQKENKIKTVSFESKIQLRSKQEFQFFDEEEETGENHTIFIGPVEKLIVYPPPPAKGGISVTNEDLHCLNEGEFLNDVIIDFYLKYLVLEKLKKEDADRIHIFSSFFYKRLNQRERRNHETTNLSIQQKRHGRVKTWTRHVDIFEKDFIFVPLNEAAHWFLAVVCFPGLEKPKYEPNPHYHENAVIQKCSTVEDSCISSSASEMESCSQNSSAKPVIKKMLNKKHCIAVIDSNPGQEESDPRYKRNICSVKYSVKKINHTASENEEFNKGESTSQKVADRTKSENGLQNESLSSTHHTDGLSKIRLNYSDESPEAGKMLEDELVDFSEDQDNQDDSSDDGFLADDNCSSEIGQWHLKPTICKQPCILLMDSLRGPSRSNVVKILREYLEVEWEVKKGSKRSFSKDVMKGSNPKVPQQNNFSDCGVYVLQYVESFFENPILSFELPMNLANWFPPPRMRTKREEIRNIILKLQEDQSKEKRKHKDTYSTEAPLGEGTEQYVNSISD
Description: SAR Analysis of small molecule inhibitors of Sentrin-specific protease 6 (SENP6) using a Luminescent assay. [Related pubchem assays (depositor defined):AID2582, AID2599]. It is filed as functional.

Test [2] concerns the target T2, Sentrin-specific protease 7 (Homo sapiens, UniProt Q9BQF6).
T2 sequence (Q9BQF6 whole entry): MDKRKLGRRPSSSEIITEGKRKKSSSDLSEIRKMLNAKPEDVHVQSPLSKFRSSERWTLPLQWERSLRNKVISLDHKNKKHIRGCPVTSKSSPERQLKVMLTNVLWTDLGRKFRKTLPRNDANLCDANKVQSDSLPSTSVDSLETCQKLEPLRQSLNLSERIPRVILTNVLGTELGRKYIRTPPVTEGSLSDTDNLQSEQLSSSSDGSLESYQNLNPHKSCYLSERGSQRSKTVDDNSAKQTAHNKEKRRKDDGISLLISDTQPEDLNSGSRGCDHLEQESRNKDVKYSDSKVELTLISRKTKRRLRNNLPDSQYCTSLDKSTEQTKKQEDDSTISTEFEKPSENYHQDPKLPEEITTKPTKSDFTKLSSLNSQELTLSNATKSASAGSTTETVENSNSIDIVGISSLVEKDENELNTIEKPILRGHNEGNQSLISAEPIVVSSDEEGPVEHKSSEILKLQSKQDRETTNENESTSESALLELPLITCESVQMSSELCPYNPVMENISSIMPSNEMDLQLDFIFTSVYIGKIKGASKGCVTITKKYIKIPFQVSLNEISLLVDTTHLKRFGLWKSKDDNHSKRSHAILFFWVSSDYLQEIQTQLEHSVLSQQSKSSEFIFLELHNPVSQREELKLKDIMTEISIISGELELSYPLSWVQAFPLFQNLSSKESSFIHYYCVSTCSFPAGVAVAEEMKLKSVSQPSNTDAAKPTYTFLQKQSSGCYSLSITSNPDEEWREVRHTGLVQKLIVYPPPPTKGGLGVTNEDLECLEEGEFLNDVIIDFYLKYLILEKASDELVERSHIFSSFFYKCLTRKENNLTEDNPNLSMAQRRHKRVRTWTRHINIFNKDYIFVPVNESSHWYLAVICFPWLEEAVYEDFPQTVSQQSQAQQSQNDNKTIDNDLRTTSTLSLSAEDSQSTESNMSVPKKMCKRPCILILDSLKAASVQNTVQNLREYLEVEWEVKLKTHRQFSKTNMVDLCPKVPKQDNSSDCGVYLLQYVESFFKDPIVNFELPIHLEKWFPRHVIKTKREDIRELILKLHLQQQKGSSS
Description: SENP7 protease inhibitors, SAR follow-up, biochemical, luminescence (AID 504497). Format: functional.

The target in another test is T3, Caspase-3 (Homo sapiens, UniProt P42574).
T3 sequence (P42574 whole entry): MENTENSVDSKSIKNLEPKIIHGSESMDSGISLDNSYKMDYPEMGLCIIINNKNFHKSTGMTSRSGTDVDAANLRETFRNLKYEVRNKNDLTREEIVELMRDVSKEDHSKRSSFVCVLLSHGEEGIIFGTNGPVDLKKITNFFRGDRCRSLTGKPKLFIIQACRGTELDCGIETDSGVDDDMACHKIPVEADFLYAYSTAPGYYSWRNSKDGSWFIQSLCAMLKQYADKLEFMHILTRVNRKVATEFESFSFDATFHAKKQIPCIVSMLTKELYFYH
Description: SAR Analysis of small molecule inhibitors of Sentrin-specific proteases (SENPs) using a Caspase-3 Selectivity assay. [Related pubchem assays (depositor defined):AID2540, AID2599, AID434973, AID489001]. Format: functional.

Test [3] deals with T4, Sentrin-specific protease 8 (Homo sapiens, UniProt Q96LD8).
T4 sequence (Q96LD8 whole entry): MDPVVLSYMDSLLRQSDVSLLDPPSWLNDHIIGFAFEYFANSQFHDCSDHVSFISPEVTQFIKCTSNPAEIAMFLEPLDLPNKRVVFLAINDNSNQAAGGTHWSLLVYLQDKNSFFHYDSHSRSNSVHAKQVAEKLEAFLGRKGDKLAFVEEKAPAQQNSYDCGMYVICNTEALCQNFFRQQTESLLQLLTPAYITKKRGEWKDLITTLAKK
Description: SENP8 protease inhibitors, SAR follow-up, biochemical, luminescence (AID 504501). Format: functional.

Test [4] in a line: CRF-BP/CRF-R2 complex antagonists, dose response, cell-based, uHTS hits, 384-well (AID 651639). It is filed as functional, Homo sapiens. As to conditions: read-out: IC50_Mean.
The target of test [5] is T5, Corticotropin-releasing factor receptor 2/Corticotropin-releasing factor-binding protein (Homo sapiens, UniProt P24387+Q13324).
T5 sequence (Q13324 whole entry): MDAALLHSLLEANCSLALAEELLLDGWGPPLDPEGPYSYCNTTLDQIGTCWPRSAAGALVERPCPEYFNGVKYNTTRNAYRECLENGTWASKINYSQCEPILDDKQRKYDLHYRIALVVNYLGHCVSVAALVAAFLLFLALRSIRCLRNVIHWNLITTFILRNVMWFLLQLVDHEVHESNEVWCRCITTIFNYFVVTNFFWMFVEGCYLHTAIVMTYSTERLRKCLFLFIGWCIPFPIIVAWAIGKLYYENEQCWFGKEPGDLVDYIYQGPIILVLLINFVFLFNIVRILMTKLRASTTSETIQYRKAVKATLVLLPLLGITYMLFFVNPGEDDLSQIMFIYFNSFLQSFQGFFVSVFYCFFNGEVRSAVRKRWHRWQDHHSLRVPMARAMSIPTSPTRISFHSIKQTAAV
T5 sequence (P24387 whole entry): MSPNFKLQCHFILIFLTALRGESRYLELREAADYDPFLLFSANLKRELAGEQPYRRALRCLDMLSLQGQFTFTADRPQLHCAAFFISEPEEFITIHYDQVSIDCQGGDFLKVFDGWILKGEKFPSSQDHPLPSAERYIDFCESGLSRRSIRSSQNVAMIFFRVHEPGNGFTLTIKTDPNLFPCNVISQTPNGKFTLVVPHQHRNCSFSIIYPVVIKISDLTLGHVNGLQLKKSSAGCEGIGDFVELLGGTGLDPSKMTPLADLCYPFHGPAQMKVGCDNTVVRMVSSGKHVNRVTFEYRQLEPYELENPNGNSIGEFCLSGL
Description: Dose Response confirmation of uHTS hits for small molecule antagonists of the CRF-binding protein and CRF-R2 receptor complex. Format: functional. As to conditions: read-out: IC50_Mean.

Test [6] deals with T5, Corticotropin-releasing factor receptor 2/Corticotropin-releasing factor-binding protein. Description: activators of CRF receptor 2 with binding protein – uHTS hits, confirmation (AID 602473). It is filed as functional. To be noted: read-out: EC50_Mean.
Another test deals with H9c2. Description: cells. Format: functional, cell-based. To be noted: Rattus norvegicus, H9c2, Myocardium.
A short description of test [7]: intracellular Trypanosoma cruzi inhibitors in host cells – cell-based, plate reader, cherry-pick samples, set 3, dose response (AID 651818).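 Note: compounds incubated with infected cells for about four days.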 It is filed as functional.
The subject of the next test is INS1. Description: beta cell apoptosis inhibitors, cytokine rescue, dose response, luminescence, retest (AID 449756).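 Note: cell death triggered by IL-1 beta plus TNF-alpha plus IFN-gamma mixture; protective hits raise ATP signal compared with cytokine alone wells.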 To be noted: Rattus norvegicus. It is filed as functional, cell-based.
The subject of the next test is SN12K1. Description: cells. As to conditions: Homo sapiens. It is filed as functional.

As for `CCCCc1ccc2nc(NC(=O)c3oc4ccccc4c3C)sc2c1`, the IC50 (in [1]; in test [2]; on Caspase-3; in test [3]) was > 99 µM (inactive) each time.
Consider `O=C(NCc1ccc2c(c1)OCO2)c1c(F)c(F)c(F)c(F)c1F`, for which the results for the IC50 in [4] and in [5] were 8.28 µM (active) and 18.7 µM (active), respectively. Besides, in [6], the EC50 is > 53 µM (inactive).
Turning to `CCOc1cc(/C=C(\C#N)C(=O)Nc2ccc(S(N)(=O)=O)cc2)ccc1OCCN1CCOCC1`, the IC50 in the test with H9c2 is > 79 µM (inactive).
Regarding `CCCc1ccccc1-c1nc(/C=C/c2ccccc2)no1`, the IC50 (in [1]; in test [2]; on Caspase-3; in test [3]) was > 99 µM (inactive) each time.
Consider `CC(C)(C)OC(=O)C[C@@H]1C/C=C\C[C@@H](CC(=O)N[C@H](CO)Cc2ccccc2)C(=O)NC[C@@H](c2ccccc2)OC1=O`, for which the IC50 with H9c2 was > 79 µM (inactive).
In general, AC50 refers to the midpoint of the concentration-response curve, whichever way the signal moves. For the compound `C[C@@H]1CN([C@H](C)CO)C(=O)Cc2cc(NC(=O)Cc3cn(C)c4ccccc34)ccc2O[C@H]1CN(C)CC1CCCCC1`, the AC50 in test [7] was 8.13 µM (active).
`COC(=O)c1ccc(CSc2nc3c(c(=O)n2-c2ccc(Br)cc2)SCC3)o1`: the figures for the IC50 in test [4] and in [5] were 15.4 µM (active) and 7.86 µM (active), respectively. In [6], the EC50 is > 53 µM (inactive).
`C[C@@H]1CN([C@@H](C)CO)C(=O)c2cc(NC(=O)Cc3cn(C)c4ccccc34)ccc2O[C@H]1CN(C)Cc1ccc(C(F)(F)F)cc1`: in [7], the AC50 was 4.31 µM (active).
Consider `Cc1ccc(C(=O)Nc2nc(-c3ccccn3)cs2)s1`, for which the AC50 with INS1 was 1.67 µM (active). In addition, the IC50 in the test with H9c2 was > 79 µM (inactive).
Take `CCOc1ccc2nc(NC(=O)Cn3c(=O)oc4ccc(C(=O)N5CCCC5)cc43)sc2c1`: the IC50 (in [1]; in test [2]; on Caspase-3; in test [3]) was > 99 µM (inactive) each time.
Take `Cc1ccc(C(C)C)c(OCC(=O)NNC(=O)Cn2[nH]c(=O)c3ccccc3c2=O)c1`: in the test with H9c2, the IC50 is > 79 µM (inactive).
Turning to `Cc1[nH]c(=O)sc1S(=O)(=O)N1CCN(C(=O)c2sc3cc(F)ccc3c2Cl)CC1`, the IC50 (in [1]; in [2]; on Caspase-3; in test [3]) was > 99 µM (inactive) throughout.
Regarding `C[C@H](CO)N1C[C@H](C)[C@@H](CN(C)S(=O)(=O)c2ccc(F)cc2)Oc2ccc(NC(=O)Nc3ccc4c(c3)OCO4)cc2C1=O`, in the test on H9c2, the IC50 is > 79 µM (inactive).
For the compound `C[C@@H]1CN([C@H](C)CO)C(=O)Cc2cc(NS(=O)(=O)c3ccc(Cl)cc3)ccc2O[C@H]1CN(C)CC1CCCCC1`, in [7], the AC50 was 2.67 µM (active).
On to `Cc1noc(C)c1S(=O)(=O)Nc1ccc2c(c1)C(=O)N([C@@H](C)CO)C[C@H](C)[C@H](CN(C)Cc1ccc(C(=O)Nc3ccccc3N)cc1)O2`, for which the AC50 in test [7] was 2.08 µM (active).
What is called GI50 is the concentration giving 50% growth inhibition. On to `O=C(OC(=O)n1ccc2ccccc21)n1ccc2ccccc21`, for which, in the test on SN12K1, the GI50 was > 100 µM (inactive).
Consider `C[C@@H]1CN([C@H](C)CO)C(=O)Cc2cc(NC(=O)Nc3ccc(F)cc3)ccc2O[C@H]1CN(C)CC1CCCCC1`, for which the AC50 in test [7] was 6.17 µM (active).
Turning to `CN(C)CCN(C(=O)c1ccc(Cl)s1)c1nc2ccc(F)cc2s1`, the IC50 (in [1]; in [2]; at Caspase-3; in test [3]) was > 99 µM (inactive) throughout.
As to `CCOC(=O)c1c(C)[nH]c(C(=O)COc2ccc3ccc(=O)oc3c2)c1C`, the IC50 in the test with H9c2 was 23.7 µM (active).
On to `C[C@@H]1CN([C@H](C)CO)C(=O)Cc2cc(NC(=O)Nc3cccc4ccccc34)ccc2O[C@@H]1CN(C)Cc1ccc(C(F)(F)F)cc1`, for which the AC50 in test [7] was 4.02 µM (active).
